Experimental data as given in doi:10.1101/2020.04.22.021360v1 (biorxiv, 2020).

Key:
[1] = target: T1, PDE2 (cGMP-dependent 3',5'-cyclic phosphodiesterase; PDE2A) (Homo sapiens, UniProt O00408); experiment: MicroScale Thermophoresis, 12-concentration dilution; format: binding
[2] = target: T1, PDE2 (cGMP-dependent 3',5'-cyclic phosphodiesterase; PDE2A); experiment: biochemical

T1 sequence (O00408 2-941): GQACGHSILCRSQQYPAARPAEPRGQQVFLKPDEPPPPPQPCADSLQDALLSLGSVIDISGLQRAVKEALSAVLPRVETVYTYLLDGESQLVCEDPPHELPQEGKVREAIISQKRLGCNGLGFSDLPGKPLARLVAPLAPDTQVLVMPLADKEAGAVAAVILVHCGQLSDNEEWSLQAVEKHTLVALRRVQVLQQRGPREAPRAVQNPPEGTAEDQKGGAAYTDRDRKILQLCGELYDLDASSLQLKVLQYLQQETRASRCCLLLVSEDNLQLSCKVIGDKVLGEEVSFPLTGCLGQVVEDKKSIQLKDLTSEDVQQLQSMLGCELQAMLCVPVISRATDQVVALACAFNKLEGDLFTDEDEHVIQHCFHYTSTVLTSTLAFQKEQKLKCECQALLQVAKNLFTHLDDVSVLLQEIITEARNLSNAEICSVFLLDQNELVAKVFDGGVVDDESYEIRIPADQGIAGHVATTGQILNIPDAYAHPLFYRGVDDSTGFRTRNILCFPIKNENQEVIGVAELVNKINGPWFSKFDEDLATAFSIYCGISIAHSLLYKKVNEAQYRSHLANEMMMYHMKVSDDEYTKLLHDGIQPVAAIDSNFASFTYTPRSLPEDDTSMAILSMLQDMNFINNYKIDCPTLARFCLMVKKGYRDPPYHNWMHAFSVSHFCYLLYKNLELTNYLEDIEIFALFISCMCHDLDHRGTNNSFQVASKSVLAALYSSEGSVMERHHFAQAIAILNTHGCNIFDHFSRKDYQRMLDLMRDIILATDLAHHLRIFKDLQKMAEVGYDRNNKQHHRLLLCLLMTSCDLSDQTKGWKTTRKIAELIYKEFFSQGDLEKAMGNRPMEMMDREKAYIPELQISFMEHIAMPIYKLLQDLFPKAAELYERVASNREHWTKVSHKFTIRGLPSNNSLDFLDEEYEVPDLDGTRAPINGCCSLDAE

For `CSc1nc2ccccc2c(=O)n1-c1ccc(F)cc1F` [Z19056583], the Kd [1] was 10.1 µM and the Kd [2] was 9.58 µM.
`CCn1c(=O)c(=O)[nH]c2cc(C(=O)Nc3nc(-c4cccnc4)cs3)ccc21` [Z29458849] gave a Kd ([1]; dye-labelled PDE2, 1:1 fit) of 24.9 µM and a Kd ([2]; binder) of 21.1 µM.
Molecule `O=C(Nc1ccc(Cl)cc1F)c1ccc(-n2cnc3ccccc32)cc1` [Z87546752] has a Kd [1] of over 100 µM.
`O=C(O)c1ccc(C=C2Cc3c(O)cccc3C2=O)cc1` [Z217160080] was tested, and the Kd ([1]; read-out: apparent KD, dye-labelled PDE2, weak binder, no KD fit) was over 100 µM.
`CCSc1nc2ccccc2c2nc(C)nn12` [Z226974122] was tested, and the Kd [1] was over 100 µM.
With `Cc1nccc(C(=O)Nc2[nH]ncc2-c2cccc(Cl)c2)n1` [Z973817294] the Kd [1] was over 100 µM.
`CSc1nc(Cl)c(C)c(NCC2CCOC2)n1` (stereo not shown) [Z3216015031] was tested, and the Kd [1] was 14.2 µM and the Kd [2] was 12.8 µM.
